These are literature values, as cited in patent publication US20150190322A1, “COMPOSITION, METHOD AND KIT FOR ENHANCING HAIR” (PHARMA PATENT HOLDING INC., priority 2009, published 2015).

The conditions of the series: in some patients, during use for reduction of intraocular pressure.

For the compound `CC(C)OC(=O)CCC/C=C\C[C@@H]1[C@@H](CC[C@@H](O)CCc2ccccc2)[C@H](O)C[C@@H]1O` [Latanoprost, isopropyl-(Z)-7[(1R, 2R, 3R, 5S)3,5-dihydroxy-2-[(3R)-3-hydroxy-5-phenylp-entyl]cyclopentyl]-5-heptenoate], the “pigmentation and growth of eyelashes” value is “increasing pigmentation and growth of eyelashes”.
